Reference: patent US20250214932A1, “T-TYPE CALCIUM CHANNEL MODULATORS COMPRISING AN AZASPIRONONANE CORE AND METHODS OF USE THEREOF” (Praxis Precision Medicines, Inc., priority 2022, published 2025)
Like-named read-outs stand apart in the source and are kept apart here.

What was measured:
absence seizures = conditions: patients treated with either of these drugs; cited from earlier work
Human Cav3.1 = Human Cav3.1 (Homo sapiens (Human), UniProt O43497); assay: Human Cav3.1 calcium channel patch clamp assay (SyncroPatch 384PE, HEK-293 natClytin/TASK1+Cav3.1 cell line); assay type: cell-based
Description: Pulse generation and data collection were performed with PatchController384 V1.3.0 and DataController384 V1.2.1 (Nanion Technologies). Off-line analysis was performed using Excel and Graphpad Prism (V 8.4.2) with complete data files uploaded to Dotmatics. The access resistance and apparent membrane capacitance were estimated using built-in protocols. Current was recorded in whole cell configuration from a population of cells. The cells were lifted, triturated, and resuspended at 800,000 cells/ml. The cells were allowed to recover in the cell hotel prior to experimentation. Currents were recorded at room temperature. The external solution contained the following (in mM): NaCl 80, NMDG 60, KCl 4, MgCl2 1, CaCl2 6, glucose 5 and HEPES 10 (pH=7.4, Osmolarity ˜300 mOsm). The extracellular solution was used as the wash, reference and compound delivery solution. […] The compound plate was created at 2× concentrated in the extracellular solution. The compound was diluted to 1:2 when added to the recording well. The amount of DMSO in the extracellular solution was held constant at the level used for the highest tested concentration. For the voltage clamp experiments on Cav3.1, data were sampled at 10 KHz. After establishment of the seal and the passage in the whole cell configuration, the cells were held at −120 mV. Cav3.1 current was evoked using a 100 ms step to −20 mV (to measure resting state block), followed by a 1600 ms step to −65 mV and a second 100 ms step to −20 mV (to measure voltage dependent block). The voltage protocol was applied every 15 seconds in the absence and in the presence of the compounds under investigation. […] Current amplitude (pA) was measured in the peak 1 and 2. The average of last 3 sweeps of each liquid period (vehicle, compound under investigation, full block) was calculated. Nickel-sensitive current was used to calculate the % of inhibition in the presence of the compound under investigation.
Pulse generation and data collection were performed with PatchController384 V1.3.0 and DataController384 V1.2.1 (Nanion Technologies). Off-line analysis was performed using Excel and Graphpad Prism (V 8.4.2) with complete data files uploaded to Dotmatics. The access resistance and apparent membrane capacitance were estimated using built-in protocols. Current was recorded in whole cell configuration from a population of cells.
The cells were lifted, triturated, and resuspended at 800,000 cells/ml. The cells were allowed to recover in the cell hotel prior to experimentation. Currents were recorded at room temperature. The external solution contained the following (in mM): NaCl 80, NMDG 60, KCl 4, MgCl2 1, CaCl2 6, glucose 5 and HEPES 10 (pH=7.4, Osmolarity ˜300 mOsm). The extracellular solution was used as the wash, reference and compound delivery solution.
The compound plate was created at 2× concentrated in the extracellular solution. The compound was diluted to 1:2 when added to the recording well. The amount of DMSO in the extracellular solution was held constant at the level used for the highest tested concentration. For the voltage clamp experiments on Cav3.1, data were sampled at 10 KHz. After establishment of the seal and the passage in the whole cell configuration, the cells were held at −120 mV. Cav3.1 current was evoked using a 100 ms step to −20 mV (to measure resting state block), followed by a 1600 ms step to −65 mV and a second 100 ms step to −20 mV (to measure voltage dependent block). The voltage protocol was applied every 15 seconds in the absence and in the presence of the compounds under investigation. […] Current amplitude (pA) was measured in the peak 1 and 2. The average of last 3 sweeps of each liquid period (vehicle, compound under investigation, full block) was calculated. Nickel-sensitive current was used to calculate the % of inhibition in the presence of the compound under investigation.

[1] = patch clamp, HEK-293 natClytin/TASK1+Cav3.1 cells, class symbols, read-out: Human Cav3.1 IC50
[2] = voltage dependent block (VDB), read-out: Cav3.1 (VDB) IC50

Sequence of Human Cav3.1 (O43497 whole entry): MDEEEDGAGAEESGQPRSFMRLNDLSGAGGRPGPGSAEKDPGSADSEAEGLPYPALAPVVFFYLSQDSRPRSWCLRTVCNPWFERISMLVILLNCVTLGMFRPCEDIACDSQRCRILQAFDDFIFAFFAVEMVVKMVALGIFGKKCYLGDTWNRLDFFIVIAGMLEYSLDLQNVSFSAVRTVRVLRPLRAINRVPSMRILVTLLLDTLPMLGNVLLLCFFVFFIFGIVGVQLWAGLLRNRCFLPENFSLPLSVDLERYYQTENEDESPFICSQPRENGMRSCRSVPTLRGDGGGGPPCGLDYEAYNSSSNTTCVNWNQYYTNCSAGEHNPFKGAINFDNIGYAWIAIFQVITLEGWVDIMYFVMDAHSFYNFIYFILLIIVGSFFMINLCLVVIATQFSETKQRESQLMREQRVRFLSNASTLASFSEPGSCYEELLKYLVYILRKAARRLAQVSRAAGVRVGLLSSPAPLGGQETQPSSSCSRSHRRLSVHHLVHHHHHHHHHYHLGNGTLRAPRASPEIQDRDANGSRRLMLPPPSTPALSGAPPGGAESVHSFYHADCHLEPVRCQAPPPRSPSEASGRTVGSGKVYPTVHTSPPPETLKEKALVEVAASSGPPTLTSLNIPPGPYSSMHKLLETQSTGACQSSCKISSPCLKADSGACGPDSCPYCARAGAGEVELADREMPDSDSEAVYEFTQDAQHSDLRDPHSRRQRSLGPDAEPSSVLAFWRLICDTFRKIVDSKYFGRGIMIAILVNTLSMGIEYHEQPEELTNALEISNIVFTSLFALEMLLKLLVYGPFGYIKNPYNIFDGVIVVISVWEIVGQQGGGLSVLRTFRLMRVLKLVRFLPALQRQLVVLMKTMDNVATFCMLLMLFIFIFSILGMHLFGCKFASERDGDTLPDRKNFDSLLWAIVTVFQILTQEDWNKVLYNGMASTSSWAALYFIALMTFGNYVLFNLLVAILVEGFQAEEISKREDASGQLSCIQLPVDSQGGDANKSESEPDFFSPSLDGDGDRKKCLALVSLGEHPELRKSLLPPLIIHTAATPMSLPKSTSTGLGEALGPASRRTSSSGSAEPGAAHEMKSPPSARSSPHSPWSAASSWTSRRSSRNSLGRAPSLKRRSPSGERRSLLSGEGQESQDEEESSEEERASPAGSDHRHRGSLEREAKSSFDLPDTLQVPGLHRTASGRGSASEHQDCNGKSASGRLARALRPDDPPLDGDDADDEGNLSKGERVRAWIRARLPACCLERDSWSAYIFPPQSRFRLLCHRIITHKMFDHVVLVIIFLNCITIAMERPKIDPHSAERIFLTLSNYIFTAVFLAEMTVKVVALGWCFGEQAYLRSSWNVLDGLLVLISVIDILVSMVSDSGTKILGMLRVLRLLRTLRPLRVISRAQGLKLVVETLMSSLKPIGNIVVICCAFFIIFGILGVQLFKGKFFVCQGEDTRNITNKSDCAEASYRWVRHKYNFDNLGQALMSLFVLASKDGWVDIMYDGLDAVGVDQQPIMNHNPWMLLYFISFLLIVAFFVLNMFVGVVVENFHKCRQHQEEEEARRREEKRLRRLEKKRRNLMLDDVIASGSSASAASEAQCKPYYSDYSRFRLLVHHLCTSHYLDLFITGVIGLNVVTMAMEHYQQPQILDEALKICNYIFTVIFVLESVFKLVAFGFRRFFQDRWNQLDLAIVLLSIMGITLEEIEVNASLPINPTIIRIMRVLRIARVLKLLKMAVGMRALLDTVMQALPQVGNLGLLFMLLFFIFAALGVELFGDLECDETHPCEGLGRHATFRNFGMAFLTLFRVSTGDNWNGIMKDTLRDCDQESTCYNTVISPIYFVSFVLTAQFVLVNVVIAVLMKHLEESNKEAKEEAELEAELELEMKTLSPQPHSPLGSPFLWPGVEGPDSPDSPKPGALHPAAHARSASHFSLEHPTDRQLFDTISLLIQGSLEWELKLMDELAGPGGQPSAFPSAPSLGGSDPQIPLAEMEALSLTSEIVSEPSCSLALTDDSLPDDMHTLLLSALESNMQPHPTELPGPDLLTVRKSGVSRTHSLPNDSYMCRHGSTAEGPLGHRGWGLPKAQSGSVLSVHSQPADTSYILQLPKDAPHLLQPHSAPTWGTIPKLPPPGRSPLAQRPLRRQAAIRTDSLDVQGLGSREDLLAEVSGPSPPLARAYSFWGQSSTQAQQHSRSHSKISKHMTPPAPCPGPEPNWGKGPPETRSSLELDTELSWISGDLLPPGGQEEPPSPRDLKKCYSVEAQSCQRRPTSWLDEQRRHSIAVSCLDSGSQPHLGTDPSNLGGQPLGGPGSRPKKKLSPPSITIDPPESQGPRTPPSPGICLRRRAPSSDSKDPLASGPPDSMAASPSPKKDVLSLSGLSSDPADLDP

SMILES | intolerable side effects, patients affected (absence seizures) | IC50 (Human Cav3.1; [1]) | IC50 (Human Cav3.1; [2])
CCCC(CCC)C(=O)O [valproate] | 24% |  | 
O=C(Nc1cc(F)cc(C(F)F)c1)C1CCC2(CC1)CN(CC1CCC(F)(F)CC1)C2 [Example 28] |  | < 1000 nM | 370 nM
Cc1cccc(NC(=O)C2CCC3(CC2)CN(CC(=O)NC2(C(F)(F)F)CC2)C3)c1 [Example 116] |  |  | 691 nM
CC1(CCN2CC3(CCC(C(=O)Nc4cc(F)cc(C(F)F)c4)CC3)C2)CC1 [Example 38] |  | < 1000 nM | 367 nM
N#CC1(CN2CC3(CCC(C(=O)Nc4cc(F)cc(OC(F)F)c4)CC3)C2)CC1 [Example 135] |  |  | 1010 nM
Cc1cc(F)cc(C(=O)NCC2CCC3(CC2)CN(CC(=O)NC(C)(C)C)C3)c1 [Example 144] |  |  | 804 nM
O=C(CN1CC2(CCC(C(=O)Nc3cc(F)cc(Cl)c3)CC2)C1)NC1CCCC1 [Example 21] |  | < 1000 nM | < 78.2 nM
CC(C)(C)NC(=O)CN1CC2(CCC(F)(C(=O)Nc3cc(F)cc(C(F)F)c3)CC2)C1 [Example 51] |  |  | 469 nM
O=C(Nc1cc(F)cc(C(F)F)c1)C1CCC2(CC1)CN(CC(=O)N1CCOCC13CC3)C2 [Example 42] |  |  | 703 nM
CC1(C)COCCN1C(=O)CN1CC2(CCC(C(=O)Nc3cc(F)cc(C(F)F)c3)CC2)C1 [Example 44] |  |  | 176 nM
O=C(CN1CC2(CCC(C(=O)NC34CC5CC(CC(C5)C3)C4)CC2)C1)NC1(C(F)(F)F)CC1 [Example 151] |  |  | 404 nM
CN(C(=O)CN1CC2(CCC(C(=O)Nc3cc(F)cc(C(F)F)c3)CC2)C1)C1(C)CCC1 [Example 40] |  |  | 338 nM
O=C(Nc1cc(F)cc(Cl)c1)C1CCC2(CC1)CN(CC(F)(F)C1CCCCC1)C2 [Example 74] |  |  | 941 nM
O=C(CN1CC2(CCC(C(=O)Nc3cccc(OC(F)F)c3)CC2)C1)NC1(C(F)(F)F)CC1 [Example 108] |  |  | 364 nM
N#CC1(CN2CC3(CCC(C(=O)Nc4cc(F)cc(Cl)c4)CC3)C2)CCOCC1 [Example 139] |  |  | 1370 nM
COc1cc(NC(=O)C2CCC3(CC2)CN(CC(=O)NC2(C(F)(F)F)CC2)C3)ccc1Cl [Example 158] |  |  | 162 nM
O=C(CN1CC2(CCC(C(=O)Nc3ccc(F)c(C(F)(F)F)c3)CC2)C1)NC1(C(F)(F)F)CC1 [Example 126] |  |  | 723 nM
Cc1cc(Cl)cc(NC(=O)C2CCC3(CC2)CN(CC2(C#N)CC2)C3)c1 [Example 136] |  |  | 991 nM
N#CC1(CN2CC3(CCC(C(=O)Nc4cccc(Cl)c4)CC3)C2)CCC(F)(F)CC1 [Example 110] |  |  | 706 nM

SMILES | intolerable side effects, patients affected (absence seizures) | IC50 (Human Cav3.1; [1]) | IC50 (Human Cav3.1; [2])
CC(C)(C)ONC(=O)CN1CC2(CCC(C(=O)Nc3cc(F)cc(Cl)c3)CC2)C1 [Example 67] |  |  | 580 nM
COc1cc(NC(=O)C2CCC3(CC2)CN(CC(=O)NC2(C(F)(F)F)CC2)C3)ccc1F [Example 125] |  |  | 588 nM
O=C(Nc1cc(F)cc(Cl)c1)C1CCC2(CC1)CN(Cc1ccc(F)cc1)C2 [Example 14] |  | < 1000 nM | 612 nM
Cc1cc(F)cc(NC(=O)C2CCC3(CC2)CN(CC(=O)NC2(C(F)(F)F)CC2)C3)c1 [Example 117] |  |  | 221 nM
N#CC1(CN2CC3(CCC(C(=O)Nc4cc(Cl)cc(OC(F)F)c4)CC3)C2)CC1 [Example 137] |  |  | 1260 nM
O=C(Nc1cc(F)cc(Cl)c1)C1CCC2(CC1)CN(Cc1cccc(C(F)F)c1)C2 [Example 19] |  | < 1000 nM | 624 nM
N#CC1(CN2CC3(CCC(C(=O)Nc4cc(F)cc(C(F)F)c4)CC3)C2)CCC(F)(F)CC1 [Example 99] |  |  | 537 nM
CC1(OC(=O)CN2CC3(CCC(C(=O)Nc4cc(F)cc(Cl)c4)CC3)C2)CC1 [Example 64] |  |  | 617 nM
COc1cccc(NC(=O)C2CCC3(CC2)CN(CC(=O)NC2(C(F)(F)F)CC2)C3)c1 [Example 112] |  |  | 1430 nM
O=C(CN1CC2(CCC(C(=O)Nc3cc(F)cc(Cl)c3)CC2)C1)NC1(C(F)(F)F)COC1 [Example 89] |  |  | 522 nM
O=C(CN1CC2(CCC(C(=O)Nc3cc(F)cc(C(F)F)c3)CC2)C1)NC1(C(F)(F)F)COC1 [Example 86] |  |  | 344 nM
CC(C)(C)CCN1CC2(CCC(C(=O)Nc3cc(F)cc(Cl)c3)CC2)C1 [Example 22] |  | < 1000 nM | 
O=C(Nc1cc(F)cc(Cl)c1)C1CCC2(CC1)CN(CC1(O)CCC(F)(F)CC1)C2 [Example 60] |  |  | 130 nM
CC(C)(C)NC(=O)CN1CC2(CCC(C(=O)Nc3cccc(OC(F)(F)F)c3)CC2)C1 [Example 63] |  |  | 492 nM
O=C(CN1CC2(CCC(C(=O)NC34CCC(CC3)C4)CC2)C1)NC1(C(F)(F)F)CC1 [Example 150] |  |  | 1960 nM
COc1cc(F)cc(NC(=O)C2CCC3(CC2)CN(CC(F)(F)C2CCCCC2)C3)c1 [Example 90] |  |  | 802 nM
O=C(Nc1cc(F)cc(Cl)c1)C1CCC2(CC1)CN(CC1CCC(F)(F)CC1)C2 [Example 61] |  |  | 440 nM
O=C(Nc1cccc(Cl)c1)C1CCC2(CC1)CN(CC(F)(F)C1CCCCC1)C2 [Example 101] |  |  | 488 nM
O=C(Nc1cc(F)cc(C(F)F)c1)C1CCC2(CC1)CN(CC(F)C1CCCC1)C2 (stereo not shown) [Example 93] |  |  | 645 nM
